Patent US20240109918A1, “HETEROCYCLIC COMPOUNDS AND USES THEREOF” (Kumquat Biosciences Inc., priority 2022, published 2024)

Experiments:
[1] = target: T1, KRASwt (Homo sapiens, UniProt P01116); assay: Bio-Biochem-PPI-HTRF Ras-SOS1 interaction assay (KRAS wt); assay type: biochemical; conditions: 5 nM
T1 construct: made in house; host or cells: E. coli BL21 (DE3)
Procedure, shortened: (§1)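 GST-tagged K-Ras (wt or G12D) with anti-GST-Eu(K) donor was mixed with His-hSOS1 and anti-6His-XL665 acceptor in HEPES pH 7.4/NaCl/DTT/BSA/Igepal buffer, with compound in duplicate from 10 μM down to 0.01 μM. After about 10 min or longer, HTRF 665/620 nm ratio gave IC50.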

[2] = target: T2, KRASG12D (Homo sapiens, UniProt P01116, G12D); assay: Bio-Biochem-PPI-HTRF Ras-SOS1 interaction assay (KRAS G12D); assay type: biochemical; conditions: 5 nM
T2 construct: made in house; host or cells: E. coli BL21 (DE3)
Procedure, shortened: as §1

T2 sequence (P01116 1-188 isoform P01116-2 G12D): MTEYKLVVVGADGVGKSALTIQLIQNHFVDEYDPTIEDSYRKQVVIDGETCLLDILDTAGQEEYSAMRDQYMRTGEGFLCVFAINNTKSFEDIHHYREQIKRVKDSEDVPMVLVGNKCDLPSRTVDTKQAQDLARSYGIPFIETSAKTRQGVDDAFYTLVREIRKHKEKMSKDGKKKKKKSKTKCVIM
T1 sequence (P01116 1-188 isoform P01116-2): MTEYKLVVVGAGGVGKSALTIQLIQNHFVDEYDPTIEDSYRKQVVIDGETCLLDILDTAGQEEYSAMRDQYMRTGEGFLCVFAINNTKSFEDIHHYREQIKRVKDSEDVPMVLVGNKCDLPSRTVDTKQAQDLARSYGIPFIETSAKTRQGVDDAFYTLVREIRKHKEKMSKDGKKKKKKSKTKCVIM

Structure (SMILES)	IC50 [1] [µM]	IC50 [2] [µM]
N#Cc1c(N)sc2c(F)ccc(-c3c(Cl)cc4c(N5CCC(C(F)F)CC6(CN(C(=O)[C@@H]7CC7(F)F)C6)C5)nc(OC[C@@]56CCCN5C[C@H](F)C6)nc4c3F)c12 (stereo partly drawn) [compound 254, 2-amino-4-(6-chloro-4-(2-((S)-2,2-difluorocyclopropane-1-carbonyl)-9-(difluoromethyl)-2,6-diazaspiro[3.6]decan-6-yl)-8-fluoro-2-(((2R,7aS)-2-fluorotetrahydro-1H-pyrrolizin-7a(5H)-yl)methoxy)quinazolin-7-yl)-7-fluorobenzo[b]thiophene-3-carbonitrile]	< 5	< 5
N#Cc1c(N)sc2c(F)ccc(-c3c(Cl)cc4c(N5CC6(CN(C(=O)C7CC7(F)F)C6)C5)nc(OC[C@@]56CCCN5C[C@H](F)C6)nc4c3F)c12 (stereo partly drawn) [compound 219, 2-amino-4-(6-chloro-4-(6-(2,2-difluorocyclopropane-1-carbonyl)-2,6-diazaspiro[3.3]heptan-2-yl)-8-fluoro-2-(((2R,7aS)-2-fluorotetrahydro-1H-pyrrolizin-7a(5H)-yl)methoxy)quinazolin-7-yl)-7-fluorobenzo[b]thiophene-3-carbonitrile]	< 5	< 5
N#Cc1c(N)sc2c(F)ccc(-c3c(Cl)cc4c(N5CCCCC6(CN(C(=O)COC(F)(F)F)C6)C5)nc(OC[C@@]56CCCN5C[C@H](F)C6)nc4c3F)c12 [compound 268, 2-amino-4-(6-chloro-8-fluoro-2-(((2R,7aS)-2-fluorotetrahydro-1H-pyrrolizin-7a(5H)-yl)methoxy)-4-(2-(2-(trifluoromethoxy)acetyl)-2,6-diazaspiro[3.6]decan-6-yl)quinazolin-7-yl)-7-fluorobenzo[b]thiophene-3-carbonitrile]	< 5	< 5
COCC(=O)N1CC2(CCCN(c3nc(O[C@@H](C)[C@@H]4CCCN4C)nc4c(F)c(-c5ccc(F)c6sc(N)c(C#N)c56)c(Cl)cc34)C2)C1 [compound 138, 2-amino-4-(6-chloro-8-fluoro-4-(2-(2-methoxyacetyl)-2,6-diazaspiro[3.5]nonan-6-yl)-2-((S)-1-((S)-1-methylpyrrolidin-2-yl)ethoxy)quinazolin-7-yl)-7-fluorobenzo[b]thiophene-3-carbonitrile]	< 5	< 5
N#Cc1c(N)sc2c(F)ccc(-c3c(Cl)cc4c(N5CCCCC6(CN(C(=O)CC7CCOCC7)C6)C5)nc(OC[C@@]56CCCN5C[C@H](F)C6)nc4c3F)c12 [compound 204, 2-amino-4-(6-chloro-8-fluoro-2-(((2R,7aS)-2-fluorotetrahydro-1H-pyrrolizin-7a(5H)-yl)methoxy)-4-(2-(2-(tetrahydro-2H-pyran-4-yl)acetyl)-2,6-diazaspiro[3.6]decan-6-yl)quinazolin-7-yl)-7-fluorobenzo[b]thiophene-3-carbonitrile]	< 5	< 5
CN1CCC[C@H]1COc1nc2c(c(N3CCCCC4(CN(C(=O)C5CC5(F)F)C4)C3)n1)CCN(c1cccc3cccc(Cl)c13)C2 (stereo partly drawn) [compound 236, (6-(7-(8-chloronaphthalen-1-yl)-2-(((S)-1-methylpyrrolidin-2-yl)methoxy)-5,6,7,8-tetrahydropyrido[3,4-d]pyrimidin-4-yl)-2,6-diazaspiro[3.6]decan-2-yl)(2,2-difluorocyclopropyl)methanone]	≥ 5	≥ 5
N#Cc1c(N)sc2c(F)ccc(-c3c(Cl)cc4c(N5CCCCC6(CN(C(=O)N7CC(C#N)C7)C6)C5)nc(OC[C@@]56CCCN5C[C@H](F)C6)nc4c3F)c12 [compound 274, 1-(6-(7-(2-amino-3-cyano-7-fluorobenzo[b]thiophen-4-yl)-6-chloro-8-fluoro-2-(((2R,7aS)-2-fluorotetrahydro-1H-pyrrolizin-7a(5H)-yl)methoxy)quinazolin-4-yl)-2,6-diazaspiro[3.6]decane-2-carbonyl)azetidine-3-carbonitrile]	< 5	< 5
